Test system: MV-4-11 cells
Assay: Gene expression microarray analysis (Affymetrix PrimeView) and GSEA
Assay type: cell-based, human
Set-up: RFU PODN (11730768_x_at) / Fold change /veh PODN (11730768_x_at) / RFU LINC00158 (11744669_a_at) / Fold change /veh LINC00158 (11744669_a_at) / RFU DUSP10 (11751237_a_at) / Fold change /veh DUSP10 (11751237_a_at) / RFU ID3 (11757404_x_at) / Fold change /veh ID3 (11757404_x_at) / RFU PLEKHG5 (11737974_s_at) / Fold change /veh PLEKHG5 (11737974_s_at) / RFU LRRC4B (11730491_at) / Fold change /veh LRRC4B (11730491_at) / RFU GIMAP4 (11747438_a_at) / Fold change /veh GIMAP4 (11747438_a_at) / RFU KRT8 (11758183_x_at) / Fold change /veh KRT8 (11758183_x_at) / RFU CNN1 (11734310_a_at) / Fold change /veh CNN1 (11734310_a_at) / RFU VPS37D (11726825_at) / Fold change /veh VPS37D (11726825_at) / RFU C10orf10 (11716522_x_at) / Fold change /veh C10orf10 (11716522_x_at) / RFU KIR2DL2 /// KIR2DL4 /// KIR2DL5A /// KIR2DL5B /// KIR2DS1 /// KIR2DS2 /// KIR2DS3 /// KIR2DS4 /// KIR3DL3 /// KIR3DL3 /// KIR3DS1 (11738374_at) / Fold change /veh KIR2DL2 /// KIR2DL4 /// KIR2DL5A /// KIR2DL5B /// KIR2DS1 /// KIR2DS2 /// KIR2DS3 /// KIR2DS4 /// KIR3DL3 /// KIR3DL3 /// KIR3DS1 (11738374_at) / RFU C1QL1 (11718748_at) / Fold change /veh C1QL1 (11718748_at) / RFU TMPRSS4 (11747572_a_at) / Fold change /veh TMPRSS4 (11747572_a_at) / RFU HAMP (11756126_x_at) / Fold change /veh HAMP (11756126_x_at) / RFU RNFT2 (11725882_a_at) / Fold change /veh RNFT2 (11725882_a_at) / RFU NR4A2 (11747474_a_at) / Fold change /veh NR4A2 (11747474_a_at) / RFU ABCC12 (11746883_a_at) / Fold change /veh ABCC12 (11746883_a_at) / RFU TMEM136 (11760407_x_at) / Fold change /veh TMEM136 (11760407_x_at) / RFU CLDN22 /// WWC2 (11732394_at) / Fold change /veh CLDN22 /// WWC2 (11732394_at) / RFU HLA-DPB1 (11760878_x_at) / Fold change /veh HLA-DPB1 (11760878_x_at) / RFU SPINT1 (11716480_a_at) / Fold change /veh SPINT1 (11716480_a_at) / RFU GAP43 (11754022_s_at) / Fold change /veh GAP43 (11754022_s_at) / RFU A4GNT (11735810_at) / Fold change /veh A4GNT (11735810_at) / RFU PRB3 (11715151_x_at) / Fold change /veh PRB3 (11715151_x_at) / RFU TUBB4B (11761932_at) / Fold change /veh TUBB4B (11761932_at) / RFU CAPN14 (11732068_a_at) / Fold change /veh CAPN14 (11732068_a_at) / RFU TMCC2 (11721928_a_at) / Fold change /veh TMCC2 (11721928_a_at) / RFU IRGQ (11745062_a_at) / Fold change /veh IRGQ (11745062_a_at) / RFU FAM174B (11720279_a_at) / Fold change /veh FAM174B (11720279_a_at) / RFU TMPRSS4 (11748680_a_at) / Fold change /veh TMPRSS4 (11748680_a_at) / RFU FAM212B (11763350_a_at) / Fold change /veh FAM212B (11763350_a_at) / RFU PLEKHG5 (11743358_a_at) / Fold change /veh PLEKHG5 (11743358_a_at) / RFU ZSCAN30 (11745921_a_at) / Fold change /veh ZSCAN30 (11745921_a_at) / RFU CMKLR1 (11741424_a_at) / Fold change /veh CMKLR1 (11741424_a_at) / RFU LOC101060620 /// MAPK8IP1 (11723275_at) / Fold change /veh LOC101060620 /// MAPK8IP1 (11723275_at) / RFU SPTSSB (11747773_x_at) / Fold change /veh SPTSSB (11747773_x_at) / RFU PRSS12 (11739890_at) / Fold change /veh PRSS12 (11739890_at) / RFU BIN1 (11741810_x_at) / Fold change /veh BIN1 (11741810_x_at) / RFU WNT11 (11732464_a_at) / Fold change /veh WNT11 (11732464_a_at) / RFU C10orf10 (11716521_a_at) / Fold change /veh C10orf10 (11716521_a_at) / RFU C5orf56 (11738089_at) / Fold change /veh C5orf56 (11738089_at) / RFU CYB561 (11721691_x_at) / Fold change /veh CYB561 (11721691_x_at) / RFU ANKRD19P (11752326_a_at) / Fold change /veh ANKRD19P (11752326_a_at) / RFU OR2T12 /// OR2T33 /// OR2T8 (11738714_s_at) / Fold change /veh OR2T12 /// OR2T33 /// OR2T8 (11738714_s_at) / RFU VCAN (11748164_a_at) / Fold change /veh VCAN (11748164_a_at) / RFU JSRP1 (11732532_at) / Fold change /veh JSRP1 (11732532_at) / RFU KRTAP10-11 (11738290_x_at) / Fold change /veh KRTAP10-11 (11738290_x_at) / RFU MYO3A (11730013_a_at) / Fold change /veh MYO3A (11730013_a_at) / RFU EBF3 (11725865_a_at) / Fold change /veh EBF3 (11725865_a_at) / RFU CAMK2N1 (11719241_x_at) / Fold change /veh CAMK2N1 (11719241_x_at) / RFU C5orf56 (11738088_a_at) / Fold change /veh C5orf56 (11738088_a_at) / RFU OLFML3 (11715873_a_at) / Fold change /veh OLFML3 (11715873_a_at) / RFU LOC100653217 /// NTM (11731650_a_at) / Fold change /veh LOC100653217 /// NTM (11731650_a_at) / RFU MAPK11 (11762145_a_at) / Fold change /veh MAPK11 (11762145_a_at) / RFU FIZ1 (11724087_x_at) / Fold change /veh FIZ1 (11724087_x_at) / RFU OASL (11726364_x_at) / Fold change /veh OASL (11726364_x_at) / RFU SOX15 (11748057_x_at) / Fold change /veh SOX15 (11748057_x_at) / RFU CD79A (11719716_a_at) / Fold change /veh CD79A (11719716_a_at) / RFU HIST1H1D (11736915_at) / Fold change /veh HIST1H1D (11736915_at) / RFU CASKIN2 (11723855_a_at) / Fold change /veh CASKIN2 (11723855_a_at) / RFU LOC730098 (11760151_x_at) / Fold change /veh LOC730098 (11760151_x_at) / RFU OR4N2 (11742367_at) / Fold change /veh OR4N2 (11742367_at) / RFU PRRT2 (11749266_a_at) / Fold change /veh PRRT2 (11749266_a_at) / RFU SNX32 (11753110_a_at) / Fold change /veh SNX32 (11753110_a_at) / RFU CDHR5 (11726645_a_at) / Fold change /veh CDHR5 (11726645_a_at) / RFU RCAN1 (11760418_a_at) / Fold change /veh RCAN1 (11760418_a_at) / RFU FAM167A (11723789_a_at) / Fold change /veh FAM167A (11723789_a_at) / RFU FAM26E (11764081_at) / Fold change /veh FAM26E (11764081_at) / RFU ISYNA1 (11749810_s_at) / Fold change /veh ISYNA1 (11749810_s_at) / RFU ACY1 (11761880_at) / Fold change /veh ACY1 (11761880_at) / RFU 11764098_at / Fold change /veh 11764098_at / RFU SAMD14 (11745864_x_at) / Fold change /veh SAMD14 (11745864_x_at) / RFU NPB (11741838_a_at) / Fold change /veh NPB (11741838_a_at) / RFU TMPRSS6 (11731388_a_at) / Fold change /veh TMPRSS6 (11731388_a_at) / RFU KRTAP10-2 (11738614_at) / Fold change /veh KRTAP10-2 (11738614_at) / RFU ARHGAP8 /// PRR5-ARHGAP8 (11727945_x_at) / Fold change /veh ARHGAP8 /// PRR5-ARHGAP8 (11727945_x_at) / RFU KRTAP5-7 /// NADSYN1 (11734609_at) / Fold change /veh KRTAP5-7 /// NADSYN1 (11734609_at) / RFU RASL12 (11751679_a_at) / Fold change /veh RASL12 (11751679_a_at) / RFU CDKN2B (11736163_a_at) / Fold change /veh CDKN2B (11736163_a_at) / RFU PRF1 (11729649_at) / Fold change /veh PRF1 (11729649_at) / RFU, ZNF638 /// ZNF638-IT1 / Fold change vs veh, ZNF638 /// ZNF638-IT1 / RFU, PANK3 / Fold change vs veh, PANK3 / RFU, SH3YL1 / Fold change vs veh, SH3YL1 / RFU, ZEB2 / Fold change vs veh, ZEB2 / RFU, NRIP1 / Fold change vs veh, NRIP1 / RFU, PTTG1IP / Fold change vs veh, PTTG1IP / RFU, CAPN2 / Fold change vs veh, CAPN2 / RFU, MED14 / Fold change vs veh, MED14 / RFU, SNORA58 / Fold change vs veh, SNORA58 / RFU, C1orf63 / Fold change vs veh, C1orf63 / RFU, LRRFIP1 / Fold change vs veh, LRRFIP1 / RFU, NDUFAF7 / Fold change vs veh, NDUFAF7 / RFU, SLC12A2 / Fold change vs veh, SLC12A2 / RFU, IBTK / Fold change vs veh, IBTK / RFU, ESF1 / Fold change vs veh, ESF1 / Fold change vs veh, TMEM50B / RFU, TAOK1 / Fold change vs veh, TAOK1 / RFU, ACBD3 / Fold change vs veh, ACBD3 / RFU, TMA16 / Fold change vs veh, TMA16 / RFU, RWDD3 / Fold change vs veh, RWDD3 / RFU, BCAT1 / Fold change vs veh, BCAT1 / RFU, EDEM3 / Fold change vs veh, EDEM3 / RFU, TMEM33 / Fold change vs veh, TMEM33 / RFU, WDR75 / Fold change vs veh, WDR75 / RFU, AHCTF1 / Fold change vs veh, AHCTF1 / RFU, TFRC / Fold change vs veh, TFRC / RFU, ZDHHC17 / Fold change vs veh, ZDHHC17 / RFU, NOM1 / Fold change vs veh, NOM1 / RFU, ARL8B / Fold change vs veh, ARL8B / RFU, ZBTB11 / Fold change vs veh, ZBTB11 / RFU, TAMM41 / Fold change vs veh, TAMM41 / RFU, KIAA1704 /// LOC100996395 / Fold change vs veh, KIAA1704 /// LOC100996395 / RFU, ING1 / Fold change vs veh, ING1 / RFU, TRMT61B / Fold change vs veh, TRMT61B / RFU, FUBP3 / Fold change vs veh, FUBP3 / RFU, TP53 / Fold change vs veh, TP53 / RFU, TNKS2 / Fold change vs veh, TNKS2 / RFU, ZFP14 / Fold change vs veh, ZFP14 / RFU, ACTR2 / Fold change vs veh, ACTR2 / RFU, PPP3R1 / Fold change vs veh, PPP3R1 / RFU, PIK3R1 / Fold change vs veh, PIK3R1 / RFU, HNRNPA1 / Fold change vs veh, HNRNPA1 / RFU, RNF170 / Fold change vs veh, RNF170 / RFU, ZNF28 / Fold change vs veh, ZNF28 / RFU, RNGTT / Fold change vs veh, RNGTT / RFU, OGT / Fold change vs veh, OGT / RFU, BRD1 / Fold change vs veh, BRD1 / RFU, MARS / Fold change vs veh, MARS / RFU, ZNF655 / Fold change vs veh, ZNF655 / RFU, FAHD1 / Fold change vs veh, FAHD1 / RFU, BDP1 / Fold change vs veh, BDP1 / RFU, LRRCC1 / Fold change vs veh, LRRCC1 / RFU, ARID1A / Fold change vs veh, ARID1A / RFU, ZNF146 / Fold change vs veh, ZNF146 / RFU, ZNF330 / Fold change vs veh, ZNF330 / RFU, GPN3 / Fold change vs veh, GPN3 / RFU, C9orf123 / Fold change vs veh, C9orf123 / RFU, N4BP2L2 / Fold change vs veh, N4BP2L2 / RFU, ARFIP1 / Fold change vs veh, ARFIP1 / RFU, FAM179B / Fold change vs veh, FAM179B / RFU, BCL10 / Fold change vs veh, BCL10 / RFU, UHRF1BP1L / Fold change vs veh, UHRF1BP1L / RFU, BET1 / Fold change vs veh, BET1 / RFU, CNOT2 / Fold change vs veh, CNOT2 / RFU, ZNF268 / Fold change vs veh, ZNF268 / Fold change vs veh, ZNF507 / RFU, DGCR2 / Fold change vs veh, DGCR2 / RFU, WDSUB1 / Fold change vs veh, WDSUB1 / Fold change vs veh, HSP90B1 /// MIR3652 / RFU, ADSS / Fold change vs veh, ADSS / RFU, GK / Fold change vs veh, GK / RFU, ZNF148 / Fold change vs veh, ZNF148 / RFU, TAF9 / Fold change vs veh, TAF9 / RFU, SLC1A5 / Fold change vs veh, SLC1A5 / RFU, SLMO2 / Fold change vs veh, SLMO2 / RFU, ABCC4 / Fold change vs veh, ABCC4 / RFU, LOC101060439 /// RAP1B / Fold change vs veh, LOC101060439 /// RAP1B / RFU, RFX7 / Fold change vs veh, RFX7 / RFU, GTPBP10 / Fold change vs veh, GTPBP10 / RFU, CNEP1R1 / Fold change vs veh, CNEP1R1 / RFU, BIVM-ERCC5 /// ERCC5 / Fold change vs veh, BIVM-ERCC5 /// ERCC5 / RFU, ILF3 / Fold change vs veh, ILF3 / RFU 11762660_at / Fold change /veh 11762660_at / RFU VCAN (11757783_s_at) / Fold change /veh VCAN (11757783_s_at) / RFU DDX43 (11728927_at) / Fold change /veh DDX43 (11728927_at) / RFU KRT8 (11758188_x_at) / Fold change /veh KRT8 (11758188_x_at) / RFU NKD1 (11759106_at) / Fold change /veh NKD1 (11759106_at) / RFU SRD5A1 (11742802_a_at) / Fold change /veh SRD5A1 (11742802_a_at) / RFU TPSAB1 /// TPSB2 (11721975_s_at) / Fold change /veh TPSAB1 /// TPSB2 (11721975_s_at) / RFU GSTM3 (11746129_a_at) / Fold change /veh GSTM3 (11746129_a_at) / RFU IL23R (11737362_x_at) / Fold change /veh IL23R (11737362_x_at) / RFU TMEM51 (11727254_a_at) / Fold change /veh TMEM51 (11727254_a_at) / RFU PIWIL2 (11732686_x_at) / Fold change /veh PIWIL2 (11732686_x_at) / RFU ORM1 (11744905_x_at) / Fold change /veh ORM1 (11744905_x_at) / RFU CCDC152 (11743942_at) / Fold change /veh CCDC152 (11743942_at) / RFU ECM1 (11717891_a_at) / Fold change /veh ECM1 (11717891_a_at) / RFU IL23R (11748794_a_at) / Fold change /veh IL23R (11748794_a_at) / RFU TNFAIP8L3 (11732012_x_at) / Fold change /veh TNFAIP8L3 (11732012_x_at) / RFU MBOAT4 (11741988_at) / Fold change /veh MBOAT4 (11741988_at) / RFU 11764193_at / Fold change /veh 11764193_at / RFU TMEM53 (11763286_at) / Fold change /veh TMEM53 (11763286_at) / RFU MAGEB2 (11727129_at) / Fold change /veh MAGEB2 (11727129_at) / RFU TMEM200A (11744735_a_at) / Fold change /veh TMEM200A (11744735_a_at) / RFU CCDC152 (11751479_a_at) / Fold change /veh CCDC152 (11751479_a_at) / RFU FAM211A (11726209_a_at) / Fold change /veh FAM211A (11726209_a_at) / RFU RGS16 (11746705_a_at) / Fold change /veh RGS16 (11746705_a_at) / RFU VCAN (11755009_s_at) / Fold change /veh VCAN (11755009_s_at) / RFU RHOB (11743442_s_at) / Fold change /veh RHOB (11743442_s_at) / RFU RGS16 (11720943_a_at) / Fold change /veh RGS16 (11720943_a_at) / RFU RGS16 (11720944_at) / Fold change /veh RGS16 (11720944_at) / RFU, VPS4B / Fold change vs veh, VPS4B / RFU, CREB1 / Fold change vs veh, CREB1 / RFU, DNAJC13 / Fold change vs veh, DNAJC13 / RFU, GNAQ / Fold change vs veh, GNAQ / RFU, CDK5R1 / Fold change vs veh, CDK5R1 / RFU, ZRANB3 / Fold change vs veh, ZRANB3 / RFU, CUL4A / Fold change vs veh, CUL4A / RFU, CCNY / Fold change vs veh, CCNY / RFU, UFL1 / Fold change vs veh, UFL1 / RFU, COG3 / Fold change vs veh, COG3 / RFU, DIAPH2 / Fold change vs veh, DIAPH2 / RFU, SKA2 / Fold change vs veh, SKA2 / RFU, AFF3 / Fold change vs veh, AFF3 / RFU, LMF1 / Fold change vs veh, LMF1 / RFU, IPO11 / Fold change vs veh, IPO11 / RFU, DFFB / Fold change vs veh, DFFB / RFU, FOXP1 / Fold change vs veh, FOXP1 / RFU, CARD8 / Fold change vs veh, CARD8 / RFU, STRN3 / Fold change vs veh, STRN3 / RFU, ADK / Fold change vs veh, ADK / RFU, RASSF2 / Fold change vs veh, RASSF2 / RFU, WIPF1 / Fold change vs veh, WIPF1 / RFU, LARP1B / Fold change vs veh, LARP1B / RFU, RASA1 / Fold change vs veh, RASA1 / RFU, RB1 / Fold change vs veh, RB1 / RFU, PPFIA1 / Fold change vs veh, PPFIA1 / RFU, MAT2A / Fold change vs veh, MAT2A / RFU, CCT5 / Fold change vs veh, CCT5 / RFU, WDR92 / Fold change vs veh, WDR92 / RFU, CUX1 / Fold change vs veh, CUX1 / RFU, TTC7A / Fold change vs veh, TTC7A / RFU, TMEM135 / Fold change vs veh, TMEM135 / RFU, DEPTOR / Fold change vs veh, DEPTOR / RFU, CPM / Fold change vs veh, CPM / RFU, DNAJB6 / Fold change vs veh, DNAJB6 / RFU, CACNA2D3 / Fold change vs veh, CACNA2D3 / RFU, DTX4 / Fold change vs veh, DTX4 / RFU, TFCP2 / Fold change vs veh, TFCP2 / RFU, GMCL1 /// GMCL1P1 / Fold change vs veh, GMCL1 /// GMCL1P1 / RFU, AEBP2 / Fold change vs veh, AEBP2 / RFU, SNHG1 /// SNORD22 /// SNORD25 /// SNORD26 /// SNORD27 /// SNORD28 /// SNORD29 /// SNORD31 / Fold change vs veh, SNHG1 /// SNORD22 /// SNORD25 /// SNORD26 /// SNORD27 /// SNORD28 /// SNORD29 /// SNORD31 / Fold change (Aza/veh), C12orf56 (ProbeSet 11735607_a_at) / Fold change (ACY-1035/veh), C12orf56 (ProbeSet 11735607_a_at) / Fold change (Aza/veh), FGFR1OP (ProbeSet 11751329_s_at) / Fold change (ACY-1035/veh), FGFR1OP (ProbeSet 11751329_s_at) / Fold change (Aza/veh), VPS36 (ProbeSet 11739960_a_at) / Fold change (ACY-1035/veh), VPS36 (ProbeSet 11739960_a_at) / RFU SYPL1 (11715823_x_at) / Fold change /veh SYPL1 (11715823_x_at) / RFU IGFBP7 (11715501_s_at) / Fold change /veh IGFBP7 (11715501_s_at) / RFU REEP3 (11722064_at) / Fold change /veh REEP3 (11722064_at) / RFU IGLL1 (11728026_x_at) / Fold change /veh IGLL1 (11728026_x_at): dose or concentration left out as unconfirmed
Settings: ProbeSet 11717914_a_at; LIST B

Nc1ccc(-c2cccs2)cc1NC(=O)c1ccc2c(c1)cc(C1CC1)n2CCN1CCOCC1 [ACY-1035]
Fold change vs veh, BIVM-ERCC5 /// ERCC5: 1.00

Source: PMC5218480 (PLoS ONE, 2017)
